Source: patent publication US4933332A, “11-desoxy-17-α-hydroxycorticosterone derivatives” (priority 1988, dated 1990)

Assays:
P-388 = test: Antitumor effect on grafted hemoblastoses (P-388), extension of lifespan; assay type: in vivo, mice and rats; settings: in vivo
Hepatoma G-60 = test: Antitumor effect on grafted hepatoma G-60; assay type: in vivo, mice and rats; settings: in vivo
L 1210 = test: Antitumor effect on grafted hemoblastoses (L 1210), extension of lifespan; assay type: in vivo, mice and rats; settings: in vivo, sc
[1] = system: DNA of sarcoma S-37 cells; test: Cross-linking and ruptures in DNA of tumoral cells (alkaline saccharose gradient sedimentation)
[2] = system: Spontaneous mammary tumors of mice; test: Effect on spontaneous breast tumors in repeated treatment courses; assay type: in vivo
Description: For the study of the antitumor activity of the compounds according to the present invention use was made of regrafted hemoblastoses, grafted solid tumors, induced and spontaneous tumors of mice and rats. The following models were used: L 1210, P-388, hemocytoblastosis La, MOPC-406, viral lympholeukosis Mazurenko LMC-1, Ca-755, mammary carcinoma metastasizing into lungs KML, alveolar mammary cancer RMK-1, small intenstine adenocarcinoma AKATON, large intestine adenocarcinoma AKATOL, Lewis lung carcinoma LL, lung adenocarcinoma RL-67, hepatomae G-22c, G-60, G-61, sarcomae S-37 and S-180, DMBA (dimethylbenzanthracene)-induced and spontaneous mammary tumors, and […] (dimethylhydrazine)-induced tumors of the large intestine.
The compounds were administered to the animals hypodermally in kernel oil. For the purpose of comparison, a known hormonocytostatic estracyte (estra-1,3,5-(10)treine-3,17β-diol-3N-[bis-(2-chloroethyl)carbamate-17-sodium phosphate] was used which was administered hypodermally in a solution of a 0.9% NaCl, chlorphenacyl and chloroambucyl which were administered intraperitoneally in a 10% solution of ethanol, sarcolysine (β-[p-di(2-chloroethyl)aminophenyl]-α-alanine hydrochloride)--intraperitoneally in a 0.9% solution of NaCl, prednisolone (pregnadiene-1,4-triol-11β,17α,21-dione-3,20)--per os in a starch size.
Criteria of the antitumor activity of the compounds according to the present invention are: extension of the lifespan of the animals (ELA, %) and tumor growth inhibition (TGI, %). [formula] T--average lifespan of the treated animals; C--average lifespan of the control animals. [formula] O--average tumor volume in the group of treated animals; K--average tumor volume in the group of control animals.
In the case of using spontaneous or induced tumors, by means of carcinogenic substances, the criteria of the antitumor effect are: TGI, % or decrease in the tumor size, %, as compared to its initial value. The treatment of spontaneous and induced tumors was initiated after achieving, by these tumors, of a particular size excluding the possibility of a spontaneous regression.

animals = test: Estral response in animals; settings: in vivo
Description: The hormonal effect of 11-desoxy-17α-hydroxy-21-[p-di-(2-chloroethyl)aminophenylacetate] corticosterone is associated with exhibition of a glucocorticoidal activity thereby.

[3] = system: Viral leukosis Mazurenko LMC-1; test: Antitumor effect on grafted hemoblastoses (LMC-1), extension of lifespan; assay type: in vivo, mice and rats; settings: in vivo
in vivo = settings: mouse
mice = settings: mouse, in vivo
La = system: La; parameters: species or system mice and rats; settings: in vivo
MOPG-406 = test: Antitumor effect on grafted hemoblastoses (MOPC-406), extension of lifespan; assay type: in vivo, mice and rats; settings: in vivo

C[C@]12CCC(=O)C=C1CC[C@@H]1[C@@H]2CC[C@@]2(C)[C@H]1CC[C@]2(O)C(=O)COC(=O)Cc1ccc(N(CCCl)CCCl)cc1 [11-desoxy-17α-hydroxy-21-[p-di(2-chloroethyl)-aminophenylacetate] corticosterone]
Extension of the lifespan of the animals (ELA) (P-388): 81%
Maximum tumor growth inhibition (Hepatoma G-60): 99%
Extension of the lifespan of the animals (ELA) (L 1210): 31%
number and duration of retention of cross-linking in DNA molecules of S-37 cells [1]: superior to chlorophenacyl
activity in repeated treatment courses ([2]; Table 4): reveals activity in repeated treatment courses
reduction in size of spontaneous tumors in breasts ([2]; compared to the size prior to the treatment): causes reduction in size of induced and spontaneous tumors
Increased lifespan ([2]; spontaneous, mice, 15 mg/kg/24 h × 5, 2 courses, 3 weeks interval): 11%
Decrease or increase (+) of the tumor, % of the initial one ([2]; spontaneous, mice, 15 mg/kg/24 h × 5, 2 courses, 3 weeks interval, week 1): 23%
Decrease or increase (+) of the tumor, % of the initial one ([2]; spontaneous, mice, 15 mg/kg/24 h × 5, 2 courses, 3 weeks interval, week 2): 37%
Decrease or increase (+) of the tumor, % of the initial one ([2]; spontaneous, mice, 15 mg/kg/24 h × 5, 2 courses, 3 weeks interval, week 3): +7%
Decrease or increase (+) of the tumor, % of the initial one ([2]; spontaneous, mice, 15 mg/kg/24 h × 5, 2 courses, 3 weeks interval, week 4): 64%
Decrease or increase (+) of the tumor, % of the initial one ([2]; spontaneous, mice, 15 mg/kg/24 h × 5, 2 courses, 3 weeks interval, week 5): 20%
Decrease or increase (+) of the tumor, % of the initial one ([2]; spontaneous, mice, 15 mg/kg/24 h × 5, 2 courses, 3 weeks interval, week 6): 50%
Decrease or increase (+) of the tumor, % of the initial one ([2]; spontaneous, mice, 15 mg/kg/24 h × 5, 2 courses, 3 weeks interval, week 7): 25%
Decrease or increase (+) of the tumor, % of the initial one ([2]; spontaneous, mice, 15 mg/kg/24 h × 5, 2 courses, 3 weeks interval, week 8): 16%
estral response (animals): short-time estral response
Extension of the lifespan of the animals (ELA) [3]: 344%
cure [3]: 33%
LD50 (in vivo): 80 mg/kg
MTD (in vivo): 44 mg/kg
toxicity lower than that of chlorophenacyl (mice): 3 times
Extension of the lifespan of the animals (ELA) (La): 105%
Extension of the lifespan of the animals (ELA) (MOPG-406): 76%
